According to PubChem BioAssay AID248 (DTP/NCI, 2004):
Where “and” joins values, the source holds several entries; their conditions need not be identical. Equal values may be shown once. Toxic doses and inconclusive results are not listed. Rule as the data show it: active = T/C of 150% or more; inactive = T/C below 125%.

Tested on: L1210 leukemia ip in BDF1 mice, survival T/C
Test: NCI In Vivo Anticancer Drug Screen. Data for tumor model L1210 Leukemia (intraperitoneal) in B6D2F1 (BDF1) mice
Conditions: endpoint: mean survival time, higher = longer survival
Outline: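 In this screen, tumor-bearing mice given compound are compared to those given vehicle, and their survival values are reported as a treated-to-control quotient.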

[1] = dose: 100.0 mg/kg/injection, schedule: Q04DX002 (ip), vehicle: saline with Tween-80
[2] = dose: 200.0 mg/kg/injection, schedule: Q04DX002 (ip), vehicle: saline with Tween-80
[3] = dose: 400.0 mg/kg/injection, schedule: Q04DX002 (ip), vehicle: saline with Tween-80
[4] = dose: 100.0 mg/kg/injection, schedule: Q01DX001 (ip), vehicle: saline with Tween-80
[5] = dose: 100.0 mg/kg/injection, schedule: Q04DX003 (ip), vehicle: saline with Tween-80
[6] = dose: 200.0 mg/kg/injection, schedule: Q01DX001 (ip), vehicle: saline with Tween-80
[7] = dose: 200.0 mg/kg/injection, schedule: Q04DX003 (ip), vehicle: saline with Tween-80
[8] = dose: 100.0 mg/kg/injection, schedule: Q04DX002 (ip), vehicle: Klucel (hydroxypropylcellulose) (HPC)
[9] = dose: 100.0 mg/kg/injection, schedule: Q01DX001 (ip), vehicle: carboxymethylcellulose (CMC)
[10] = dose: 200.0 mg/kg/injection, schedule: Q01DX001 (ip), vehicle: carboxymethylcellulose (CMC)
[11] = dose: 400.0 mg/kg/injection, schedule: Q01DX001 (ip), vehicle: carboxymethylcellulose (CMC)
[12] = dose: 100.0 mg/kg/injection, schedule: Q04DX003 (ip), vehicle: Klucel (hydroxypropylcellulose) (HPC)
[13] = dose: 200.0 mg/kg/injection, schedule: Q04DX003 (ip), vehicle: Klucel (hydroxypropylcellulose) (HPC)
[14] = dose: 400.0 mg/kg/injection, schedule: Q04DX003 (ip), vehicle: Klucel (hydroxypropylcellulose) (HPC)
[15] = dose: 200.0 mg/kg/injection, schedule: Q04DX002 (ip), vehicle: Klucel (hydroxypropylcellulose) (HPC)
[16] = dose: 400.0 mg/kg/injection, schedule: Q04DX002 (ip), vehicle: Klucel (hydroxypropylcellulose) (HPC)
[17] = dose: 100.0 mg/kg/injection, schedule: Q01DX009 (ip), vehicle: Klucel (hydroxypropylcellulose) (HPC)
[18] = dose: 200.0 mg/kg/injection, schedule: Q01DX009 (ip), vehicle: Klucel (hydroxypropylcellulose) (HPC)
[19] = dose: 100.0 mg/kg/injection, schedule: Q01DX001 (ip), vehicle: saline
[20] = dose: 200.0 mg/kg/injection, schedule: Q01DX001 (ip), vehicle: saline
[21] = dose: 100.0 mg/kg/injection, schedule: Q01DX009 (ip), vehicle: saline with Tween-80
[22] = dose: 200.0 mg/kg/injection, schedule: Q01DX009 (ip), vehicle: saline with Tween-80

Measured: T/C

NC(CSS(=O)(=O)O)=NCCc1c[nH]c(=S)[nH]1
inactive: dose: 12.5 mg/kg/injection, schedule: Q04DX002 (ip), vehicle: Klucel (hydroxypropylcellulose) (HPC) 107 % of control | dose: 25.0 mg/kg/injection, schedule: Q04DX002 (ip), vehicle: Klucel (hydroxypropylcellulose) (HPC) 91 % of control

CC(=O)OC1CC23CCC(=O)C2(CC3)C1 (configuration not stated)
inactive: [1] 99 % of control | [2] 111 % of control | [3] 99 % of control

CCCCOP(=O)(OCCCC)C(O)CCC (configuration not stated)
inactive: [4] 93 % of control | [5] 104 % of control | [6] 93 % of control | [7] 98 % of control

N/C(=N/N=C/c1ccccc1O)N/N=C\c1ccccc1O
inactive: dose: 15.0 mg/kg/injection, schedule: Q01DX Z (ip), vehicle: carboxymethylcellulose (CMC) 93 % of control | dose: 30.0 mg/kg/injection, schedule: Q01DX Z (ip), vehicle: carboxymethylcellulose (CMC) 92 % of control | dose: 60.0 mg/kg/injection, schedule: Q01DX Z (ip), vehicle: carboxymethylcellulose (CMC) 97 % of control and 89 % of control | dose: 120.0 mg/kg/injection, schedule: Q01DX Z (ip), vehicle: carboxymethylcellulose (CMC) 92 % of control and 100 % of control | dose: 240.0 mg/kg/injection, schedule: Q01DX Z (ip), vehicle: carboxymethylcellulose (CMC) 100 % of control | dose: 240.0 mg/kg/injection, schedule: Q01DX Z (oral), vehicle: carboxymethylcellulose (CMC) 105 % of control | dose: 480.0 mg/kg/injection, schedule: Q01DX Z (ip), vehicle: carboxymethylcellulose (CMC) 94 % of control | dose: 480.0 mg/kg/injection, schedule: Q01DX Z (oral), vehicle: carboxymethylcellulose (CMC) 105 % of control | dose: 960.0 mg/kg/injection, schedule: Q01DX Z (oral), vehicle: carboxymethylcellulose (CMC) 105 % of control | dose: 1920.0 mg/kg/injection, schedule: Q01DX Z (oral), vehicle: carboxymethylcellulose (CMC) 113 % of control

NC(=S)N/N=C(\c1ccccc1)c1cccc2ccccc12
inactive: dose: 25.0 mg/kg/injection, schedule: Q01DX009 (ip), vehicle: Klucel (hydroxypropylcellulose) (HPC) 91 % of control | dose: 50.0 mg/kg/injection, schedule: Q01DX009 (ip), vehicle: Klucel (hydroxypropylcellulose) (HPC) 91 % of control | [8] 93 % of control

O=C(NCCCl)NC1CC1c1ccccc1 (configuration not stated)
inactive: dose: 75.0 mg/kg/injection, schedule: Q01DX001 (ip), vehicle: other 97 % of control | dose: 150.0 mg/kg/injection, schedule: Q01DX001 (ip), vehicle: other 103 % of control

O=[N+]([O-])c1cccc([N+](=O)[O-])c1Cl
inactive: [9] 114 % of control | [10] 108 % of control | [11] 108 % of control

CCCCCCCCC(=O)Nc1cccc(O)c1
inactive: [5] 96 % of control | [7] 101 % of control | dose: 400.0 mg/kg/injection, schedule: Q04DX003 (ip), vehicle: saline with Tween-80 96 % of control

COC(=O)C1(C)CSCCC1=O (configuration not stated)
inactive: dose: 100.0 mg/kg/injection, schedule: Q01DX009 (ip), vehicle: other 94 % of control | dose: 200.0 mg/kg/injection, schedule: Q01DX009 (ip), vehicle: other 94 % of control | dose: 400.0 mg/kg/injection, schedule: Q01DX009 (ip), vehicle: other 99 % of control

O=C(O)c1ccc(O)c([N+](=O)[O-])c1
inactive: dose: 100.0 mg/kg/injection, schedule: Q01DX009 (ip), vehicle: saline 105 % of control | [12] 101 % of control | dose: 200.0 mg/kg/injection, schedule: Q01DX009 (ip), vehicle: saline 96 % of control | [13] 100 % of control | dose: 400.0 mg/kg/injection, schedule: Q01DX009 (ip), vehicle: saline 87 % of control | [14] 102 % of control

Cc1ccc(-n2ccnc2C)c(N=Cc2ccc(N(CCCl)CCCl)cc2C)c1
inactive: [8] 98 % of control | [15] 102 % of control | [16] 106 % of control

O=C(OC1CSC1)c1ccc([N+](=O)[O-])cc1
inactive: [17] 95 % of control | [18] 92 % of control | dose: 400.0 mg/kg/injection, schedule: Q01DX009 (ip), vehicle: Klucel (hydroxypropylcellulose) (HPC) 97 % of control

ClCC[N+]12CC[N+](CCCl)(CC1)C2
inactive: dose: 75.0 mg/kg/injection, schedule: Q01DX001 (ip), vehicle: saline 105 % of control | dose: 150.0 mg/kg/injection, schedule: Q01DX001 (ip), vehicle: saline 120 % of control

Cc1nccnc1N/N=C\c1ccc(N(CCCl)CCCl)cc1
inactive: [9] 104 % of control | [10] 96 % of control | [11] 93 % of control

Nc1nc(-c2ccccc2)nc2nc3[nH]c(=O)[nH]c(=O)c3nc12
inactive: [8] 94 % of control | [15] 102 % of control | [16] 98 % of control

Nc1nc2ccccc2n1C1OC(CO)C(O)C1O (configuration not stated)
inactive: [19] 101 % of control | [20] 95 % of control | dose: 400.0 mg/kg/injection, schedule: Q01DX001 (ip), vehicle: saline 104 % of control

CCC(C)C(C#N)(CCN(C)C)Cc1cccc2ccccc12 (configuration not stated)
inactive: dose: 25.0 mg/kg/injection, schedule: Q04DX003 (ip), vehicle: Klucel (hydroxypropylcellulose) (HPC) 97 % of control | dose: 50.0 mg/kg/injection, schedule: Q04DX003 (ip), vehicle: Klucel (hydroxypropylcellulose) (HPC) 92 % of control | [17] 100 % of control | [12] 103 % of control

CCN(CC)c1ccc(C=Nc2cccc(C(F)(F)F)c2)cc1
inactive: [17] 105 % of control | [12] 92 % of control | [18] 94 % of control | [13] 94 % of control | [14] 97 % of control

CC(C)(C)C(Br)C(Br)Br (configuration not stated) (tested in a mixture with another compound)
inactive: dose: 50.0 mg/kg/injection, schedule: Q01DX009 (ip), vehicle: saline with Tween-80 101 % of control | [21] 97 % of control | [22] 89 % of control

CCOc1ncc([N+](=O)[O-])cc1[N+](=O)[O-]
inactive: [12] 88 % of control | [13] 92 % of control | [14] 90 % of control

CCN(CC)CCNc1ccccc1Cl
inactive: [19] 101 % of control | [20] 101 % of control

C=CCC1(Cc2ccsc2)C(=O)NC(=O)NC1=O
inactive: [9] 90 % of control | [10] 92 % of control | [11] 100 % of control

C/C(=C/C(=O)O)C(=O)Nc1cccc2c(NC(=O)/C(C)=C/C(=O)O)cccc12
inactive: [9] 95 % of control | [10] 96 % of control | [11] 96 % of control

O=C(CCN1CC1)Oc1ccc(Cl)cc1
inactive: [4] 97 % of control | [6] 95 % of control | dose: 400.0 mg/kg/injection, schedule: Q01DX001 (ip), vehicle: saline with Tween-80 95 % of control

O=C(CC(=O)c1ccccc1)Nc1ccccn1
inactive: [19] 101 % of control | [20] 98 % of control

CN(C(=O)c1ccc(Cl)c(Cl)c1)C(c1ccco1)P(=O)(c1ccccc1)c1ccccc1 (configuration not stated)
inactive: [21] 90 % of control | [1] 96 % of control | [22] 103 % of control | [2] 90 % of control | dose: 400.0 mg/kg/injection, schedule: Q01DX009 (ip), vehicle: saline with Tween-80 93 % of control | [3] 93 % of control

O=[N+]([O-])c1ccn(Cc2ccccc2)c1
inactive: [9] 97 % of control | [10] 88 % of control | [11] 92 % of control

ClCCN(CCCl)c1ccc(-n2cnc3c(Cl)ncnc32)cc1
inactive: dose: 32.0 mg/kg/injection, schedule: Q01DX015 (ip), vehicle: carboxymethylcellulose (CMC) 96 % of control | dose: 64.0 mg/kg/injection, schedule: Q01DX015 (ip), vehicle: carboxymethylcellulose (CMC) 96 % of control | dose: 128.0 mg/kg/injection, schedule: Q01DX015 (ip), vehicle: carboxymethylcellulose (CMC) 97 % of control | dose: 256.0 mg/kg/injection, schedule: Q01DX015 (ip), vehicle: carboxymethylcellulose (CMC) 105 % of control
